The experiment concerns the target TBK1 (Homo sapiens (Human), UniProt Q9UHD2). Kind of experiment: TBK1 low ATP kinase assay (in vitro assay 1). Format: biochemical. The following applies: in vitro assay 1, read-out: TBK1 low ATP kinase assay IC50.

TBK1, sequence (Q9UHD2 whole entry): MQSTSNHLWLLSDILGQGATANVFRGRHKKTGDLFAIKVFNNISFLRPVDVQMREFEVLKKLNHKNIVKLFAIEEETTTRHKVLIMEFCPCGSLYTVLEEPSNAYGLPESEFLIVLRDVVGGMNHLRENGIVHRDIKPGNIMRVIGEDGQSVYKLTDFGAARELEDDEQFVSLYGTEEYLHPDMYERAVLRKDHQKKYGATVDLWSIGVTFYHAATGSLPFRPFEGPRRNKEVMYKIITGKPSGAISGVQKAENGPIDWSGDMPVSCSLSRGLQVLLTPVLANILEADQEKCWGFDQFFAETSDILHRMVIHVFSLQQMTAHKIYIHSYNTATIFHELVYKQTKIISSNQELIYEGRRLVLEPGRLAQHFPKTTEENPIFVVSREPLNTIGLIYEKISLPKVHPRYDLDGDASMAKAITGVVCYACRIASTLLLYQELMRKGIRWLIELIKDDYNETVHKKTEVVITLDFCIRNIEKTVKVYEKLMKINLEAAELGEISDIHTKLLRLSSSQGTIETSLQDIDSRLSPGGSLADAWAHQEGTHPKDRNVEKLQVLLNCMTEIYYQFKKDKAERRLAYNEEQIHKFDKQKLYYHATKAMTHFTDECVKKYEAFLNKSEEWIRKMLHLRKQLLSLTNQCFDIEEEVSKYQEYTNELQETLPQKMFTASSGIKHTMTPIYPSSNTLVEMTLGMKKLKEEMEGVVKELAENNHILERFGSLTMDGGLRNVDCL

The IC50 is the concentration that gives 50% inhibition. Turning to `CC(c1ccnc(Nc2nc3ccc(-c4cc(N5CCCC5)ncn4)cc3[nH]2)c1)N1CCN(C(=O)C2(C)CC2(F)F)CC1` (single isomer, unassigned) [Example 117.06, [(1RS)-2,2-difluoro-1-methylcyclopropyl](4-{(1R or S)-1-[2-({6-[6-(pyrrolidin-1-yl)pyrimidin-4-yl]-1H-benzimidazol-2-yl}amino)pyridin-4-yl]ethyl}piperazin-1-yl)methanone], the IC50 came out at 0.86 nM.
With `COc1cc(-c2ccc3nc(Nc4cc(CN5CCN(C(=O)C6CC6)CC5)ccn4)[nH]c3c2)ccn1` [Example 02.02, cyclopropyl{4-[(2-{[6-(2-methoxypyridin-4-yl)-1H-benzimidazol-2-yl]amino}pyridin-4-yl)methyl]piperazin-1-yl}methanone] the figure was 30.7 nM; with `CC(c1ccnc(Nc2nc3ccc(-c4cc(OCC5CC5)ncn4)cc3[nH]2)c1)N1CCN(C(=O)OC(C)(C)C)CC1` (single isomer, unassigned) [Example 85.02, tert-Butyl 4-{(1R or 1S)-1-[2-({6-[6-(cyclopropylmethoxy)pyrimidin-4-yl]-1H-benzimidazol-2-yl}amino)pyridin-4-yl]ethyl}piperazine-1-carboxylate], 14 nM.
As for `O=C(CC(F)(F)F)N1CCN(Cc2ccnc(Nc3nc4ccc(-c5ccnc(C(F)F)c5)cc4[nH]3)c2)CC1` [Example 139.02, 1-(4-{[2-({6-[2-(difluoromethyl)pyridin-4-yl]-1H-benzimidazol-2-yl}amino)pyridin-4-yl]methyl}piperazin-1-yl)-3,3,3-trifluoropropan-1-one], the IC50 turned out to be 15 nM.
Regarding `Cc1cc(-c2ccc3nc(Nc4cc(CN5CCN(C(=O)OC(C)(C)C)CC5)ccn4)[nH]c3c2)c(F)cn1` [Example 131.01, tert-butyl 4-[(2-{[6-(5-fluoro-2-methylpyridin-4-yl)-1H-benzimidazol-2-yl]amino}pyridin-4-yl)methyl]piperazine-1-carboxylate], the IC50 turned out to be 140 nM.
On to `CC(c1ccnc(Nc2nc3ccc(-c4cnn(CC5(Cl)CC5)c4)cc3[nH]2)c1)N1CCN(C(=O)OC(C)(C)C)CC1` (single isomer, unassigned) [Example 69.01, tert-butyl 4-[(1R or 1S)-1-{2-[(6-{1-[(1-chlorocyclopropyl)methyl]-1H-pyrazol-4-yl}-1H-benzimidazol-2-yl)amino]pyridin-4-yl}ethyl]piperazine-1-carboxylate], for which the IC50 worked out at 12 nM.
For `CN(C)c1nccnc1-c1ccc2nc(Nc3cc(CN4CCN(C(=O)C5CC5)CC4)ccn3)[nH]c2c1` [Example 196.03, cyclopropyl(4-{[2-({6-[3-(dimethylamino)pyrazin-2-yl]-1H-benzimidazol-2-yl}amino)pyridin-4-yl]methyl}piperazin-1-yl)methanone], the IC50 came out at 1420 nM.
`CCOc1cc(-c2ccc3nc(Nc4cc(CN5CCN(C(=O)CC(F)(F)F)CC5)ccn4)[nH]c3c2)ncn1` [Example 161.02, 1-{4-[(2-{[6-(6-ethoxypyrimidin-4-yl)-1H-benzimidazol-2-yl]amino}pyridin-4-yl)methyl]piperazin-1-yl}-3,3,3-trifluoropropan-1-one]: the IC50 came to 7.7 nM.
With `CC(c1ccnc(Nc2nc3ccc(-c4cc(C(F)F)ncn4)cc3[nH]2)c1)N1CCN(C(=O)C2CC2)CC1` (single isomer, unassigned) [Example 174.03, cyclopropyl(4-{(1R or 1S)-1-[2-({6-[6-(difluoromethyl)pyrimidin-4-yl]-1H-benzimidazol-2-yl}amino)pyridin-4-yl]ethyl}piperazin-1-yl)methanone] the figure was 3.26 nM; with `CN(C)c1cnc(-c2ccc3nc(Nc4cc(CN5CCN(C(=O)C6CC6)CC5)ccn4)[nH]c3c2)cn1` [Example 144.03, cyclopropyl(4-{[2-({6-[5-(dimethylamino)pyrazin-2-yl]-1H-benzimidazol-2-yl}amino)pyridin-4-yl]methyl}piperazin-1-yl)methanone], 440 nM.
As to `CN(C)c1ccnc(-c2ccc3nc(Nc4cc(CN5CCN(C(=O)OC(C)(C)C)CC5)ccn4)[nH]c3c2)n1` [Example 181.01, tert-butyl 4-{[2-({6-[4-(dimethylamino)pyrimidin-2-yl]-1H-benzimidazol-2-yl}amino)pyridin-4-yl]methyl}piperazine-1-carboxylate], the IC50 is 791 nM.
For `O=C(C1CC1)N1CCN(Cc2ccnc(Nc3nc4ccc(-c5cc(C6CC6)ncn5)cc4[nH]3)c2)CC1` [Example 76.02, cyclopropyl{4-[(2-{[6-(6-cyclopropylpyrimidin-4-yl)-1H-benzimidazol-2-yl]amino}pyridin-4-yl)methyl]piperazin-1-yl}methanone], the IC50 was 9.4 nM.
To `CC(C)(C)OC(=O)N1CCN(Cc2ccnc(Nc3nc4ccc(-c5cc(NCCO)ncn5)cc4[nH]3)c2)CC1` [Example 81.01, tert-butyl 4-({2-[(6-{6-[(2-hydroxyethyl)amino]pyrimidin-4-yl}-1H-benzimidazol-2-yl)amino]pyridin-4-yl}methyl)piperazine-1-carboxylate] belongs 13 nM; to `Cc1cc(-c2ccc3nc(Nc4cc(CN5CCN(C(=O)OC(C)(C)C)CC5)ccn4)[nH]c3c2)nc(N(C)C)n1` [Example 178.01, tert-butyl 4-{[2-({6-[2-(dimethylamino)-6-methylpyrimidin-4-yl]-1H-benzimidazol-2-yl}amino)pyridin-4-yl]methyl}piperazine-1-carboxylate], 890 nM.
Turning to `CC(c1ccnc(Nc2nc3ccc(-c4cnn(CC5CC5(F)F)c4)cc3[nH]2)c1)N1CCN(C(=O)OC(C)(C)C)CC1` (single isomer, unassigned) [Example 55.01, tert-butyl 4-[(1R or 1S)-1-(2-{[6-(1-{[(1RS)-2,2-difluorocyclopropyl]methyl}-1H-pyrazol-4-yl)-1H-benzimidazol-2-yl]amino}pyridin-4-yl)ethyl]piperazine-1-carboxylate], the IC50 turned out to be 4.05 nM.
Regarding `CCn1cc(-c2ccc3nc(Nc4cc(CN5CCN(C(=O)C6CC6)CC5)ccn4)[nH]c3c2OCC(C)C)cn1` [Example 52.02, cyclopropyl{4-[(2-{[6-(1-ethyl-1H-pyrazol-4-yl)-7-(2-methylpropoxy)-1H-benzimidazol-2-yl]amino}pyridin-4-yl)methyl]piperazin-1-yl}methanone], the IC50 is 36.9 nM.
With `CC(C)c1cc(-c2ccc3nc(Nc4cc(CN5CCN(C(=O)CC(F)(F)F)CC5)ccn4)[nH]c3c2)ncn1` [Example 78.01, 3,3,3-trifluoro-1-(4-{[2-({6-[6-(propan-2-yl)pyrimidin-4-yl]-1H-benzimidazol-2-yl}amino)pyridin-4-yl]methyl}piperazin-1-yl)propan-1-one], the IC50 is 22 nM.
To `COc1cncnc1-c1ccc2nc(Nc3cc(C(C)N4CCN(C(=O)C5CC5)CC4)ccn3)[nH]c2c1` (racemic) [Example 35.02.03, (rac)-cyclopropyl{4-[1-(2-{[6-(5-methoxypyrimidin-4-yl)-1H-benzimidazol-2-yl]amino}pyridin-4-yl)ethyl]piperazin-1-yl}methanone] belongs 6.29 nM; to `CC(C)(C)OC(=O)N1CCN(Cc2ccnc(Nc3nc4ccc(-c5ccnc(OCC6CC6)n5)cc4[nH]3)c2)CC1` [Example 62.01.01, tert-butyl 4-{[2-({6-[2-(cyclopropylmethoxy)pyrimidin-4-yl]-1H-benzimidazol-2-yl}amino)pyridin-4-yl]methyl}piperazine-1-carboxylate], 57.3 nM.
With `CN(C)c1ncnc(-c2ccc3nc(Nc4cc(CN5CCN(C(=O)CC(F)(F)F)CC5)ccn4)[nH]c3c2)c1F` [Example 162.02, 1-(4-{[2-({6-[6-(dimethylamino)-5-fluoropyrimidin-4-yl]-1H-benzimidazol-2-yl}amino)pyridin-4-yl]methyl}piperazin-1-yl)-3,3,3-trifluoropropan-1-one], the IC50 amounted to 20 nM.
Consider `Cc1cc(-c2ccc3nc(Nc4cc(CN5CCN(C(=O)CC(F)(F)F)CC5)ccn4)[nH]c3c2)nc(N(C)C)n1` [Example 178.02, 1-(4-{[2-({6-[2-(dimethylamino)-6-methylpyrimidin-4-yl]-1H-benzimidazol-2-yl}amino)pyridin-4-yl]methyl}piperazin-1-yl)-3,3,3-trifluoropropan-1-one], for which the IC50 was found to be 402 nM.
Turning to `Cc1cccc(N2CCN(Cc3ccnc(Nc4nc5ccc(-c6nc(C)no6)cc5[nH]4)c3)CC2)c1` [Example 101.03, 6-(3-methyl-1,2,4-oxadiazol-5-yl)-N-(4-{[4-(3-methylphenyl)piperazin-1-yl]methyl}pyridin-2-yl)-1H-benzimidazol-2-amine], the IC50 was 690 nM.
For the compound `CN(CC1CC1)c1cc(-c2ccc3nc(Nc4cc(CN5CCN(C(=O)CC(F)(F)F)CC5)ccn4)[nH]c3c2)ncn1` [Example 141.02, 1-[4-({2-[(6-{6-[(cyclopropylmethyl)(methyl)amino]pyrimidin-4-yl}-1H-benzimidazol-2-yl)amino]pyridin-4-yl}methyl)piperazin-1-yl]-3,3,3-trifluoropropan-1-one], the concentration for half-maximal inhibition (IC50) came out at 19 nM.
For `O=C(C1CC1)N1CCN(Cc2ccnc(Nc3nc4ccc(-c5nc(C6CC6)c[nH]5)cc4[nH]3)c2)CC1` [Example 43.03, cyclopropyl{4-[(2-{[6-(4-cyclopropyl-1H-imidazol-2-yl)-1H-benzimidazol-2-yl]amino}pyridin-4-yl)methyl]piperazin-1-yl}methanone], the half-maximal inhibitory concentration (IC50) came out at 696 nM.
As for `O=C(C1CC1)N1CCN(Cc2ccnc(Nc3nc4ccc(-c5nc(C6CCCC6)no5)cc4[nH]3)c2)CC1` [Example 19.01, {4-[(2-{[6-(3-cyclopentyl-1,2,4-oxadiazol-5-yl)-1H-benzimidazol-2-yl]amino}pyridin-4-yl)methyl]piperazin-1-yl}(cyclopropyl)methanone], the IC50 turned out to be 414 nM.
To `COc1ccc(-c2ccc3nc(Nc4cc(CN5CCN(C(=O)CC(F)(F)F)CC5)ccn4)[nH]c3c2)cn1` [Example 13.03, 3,3,3-trifluoro-1-{4-[(2-{[6-(6-methoxypyridin-3-yl)-1H-benzimidazol-2-yl]amino}pyridin-4-yl)methyl]piperazin-1-yl}propan-1-one] belongs 190 nM.
